Experimental data as given in article doi:10.1101/2025.11.13.687868v1 (biorxiv, 2025).

Tests used:
[1] = molecular target: T1, GPX1 (Homo sapiens, UniProt P07203); assay: GR-coupled NADPH fluorescence assay; assay type: biochemical
T1 sequence (P07203 1-203): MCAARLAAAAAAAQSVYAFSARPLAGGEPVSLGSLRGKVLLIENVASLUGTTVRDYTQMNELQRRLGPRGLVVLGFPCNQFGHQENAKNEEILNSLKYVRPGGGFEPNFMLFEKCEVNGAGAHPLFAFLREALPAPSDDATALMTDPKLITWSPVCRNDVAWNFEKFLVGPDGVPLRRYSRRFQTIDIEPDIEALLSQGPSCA

[2] = molecular target: T2, GPX4 (purified recombinant Sec-containing human GPX4) (Homo sapiens, UniProt P36969); assay: GR-coupled NADPH fluorescence assay; assay type: biochemical
T2 sequence (P36969 28-197): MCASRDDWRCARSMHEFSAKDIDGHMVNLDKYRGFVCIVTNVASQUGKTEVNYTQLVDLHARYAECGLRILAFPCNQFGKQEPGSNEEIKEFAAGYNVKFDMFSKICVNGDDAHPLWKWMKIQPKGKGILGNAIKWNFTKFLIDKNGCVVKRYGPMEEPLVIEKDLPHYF

IC50 [1]: 6.7 µM | IC50 [2]: 54.8 µM
Structure (SMILES): O=C(O)CC(S)C(=O)O (centres unmarked) [thiomalic acid]
